# What was measured:
# MM1.S [1] = test: 7 day pretreatment + 4-day co-treatment combination model (Cell Titer Glo); conditions: Homo sapiens, MM1.S, 96 h, read-out: 4-day IC50
# Excerpt: (§1) Assay plates were developed for endpoint analysis using Cell Titer Glo to measure ATP content, which was used as an indicator of cell viability. DMSO concentration was kept constant throughout the assay at less than 0.2% v/v.
# (§2) Cell lines: The cell lines MI1.S and U266B1 were obtained from American Type Culture Collection (ATCC; Rockville, MD). The cell lines LP-1, L-363 were obtained from Deutsche Sammlung von Mikroorganismen and Zellkulturen (DSMZ; Braunschweig, Germany) and the cell line KMS-28BM was obtained from Japanese Collection of Research Bioresources Cell Bank (JCRB, Osaka Japan). All cells were maintained as instructed by the supplier and cultures were maintained at 37° C. in a humidified atmosphere and 5% CO2.
# (§3) Loewe volumes greater than 1 denoted synergy and volumes <−1 denoted antagonism.
# LP-1 = test: as above; conditions: for IC50: Homo sapiens, LP-1, 96 h, read-out: 4-day IC50; for combinatorial effect by Loewe volumes: second agent + tazemetostat, 7 day pretreatment + 4-day co-treatment, LP-1 t(4;14)
# Excerpt: as §1, §2, §3
# KMS-28-BM = test: as above; conditions: for IC50: KMS-28BM, 96 h, read-out: 4-day IC50; for combinatorial effect by Loewe volumes: second agent + tazemetostat, 7 day pretreatment + 4-day co-treatment, KMS-28-BM t(4;14)
# Description: as §1
# (§4) All cells were maintained as instructed by the supplier and cultures were maintained at 37° C. in a humidified atmosphere and 5% CO2.
# as §3
# L-363 = test: as above; conditions: for IC50: Homo sapiens, L-363, 96 h, read-out: 4-day IC50; for combinatorial effect by Loewe volumes: second agent + tazemetostat, 7 day pretreatment + 4-day co-treatment, L-363 t(20;22)
# Excerpt: as §1, §2, §3
# U266 = test: as above; conditions: for IC50: Homo sapiens, U-266, 96 h, read-out: 4-day IC50; for combinatorial effect by Loewe volumes: second agent + tazemetostat, 7 day pretreatment + 4-day co-treatment, U266 t(11;14)
# MM1.S [2] = test: 7-day co-treatment combination model (Cell Titer Glo); conditions: second agent + tazemetostat, 7 day co-treatment
# Description: as §1
# (§5) Cell lines: The cell lines MI1.S and U266B1 were obtained from American Type Culture Collection (ATCC; Rockville, MD). […] All cells were maintained as instructed by the supplier and cultures were maintained at 37° C. in a humidified atmosphere and 5% CO2.
# as §3
# RPMI-8226 = test: as above; conditions: second agent + tazemetostat, 7 day co-treatment
# Description: as §1, §5, §3
# MOLP-8 = test: 7 day pretreatment + 4-day co-treatment combination model (Cell Titer Glo); conditions: second agent + tazemetostat, MOLP-8 t(11;14)
# Description: as §1, §4, §3
# Jeko-1 [3] = test: mantle cell lymphoma 7 day pretreatment + 4-day co-treatment model (Cell Titer Glo)
# Excerpt: (§6) Cells were then co-treated in triplicate with a second compound, 3-fold serially diluted for additional 4 days. After this time, plates were developed for endpoint analysis using Cell Titer Glo to measure ATP content, which is used as an indicator of cell viability.
# (§7) A Loewe volume greater than 1 denoted synergy. A Loewe volume between −1 and 1 denoted additivity, and a negative Loewe volume of less than −1, denoted antagonism.
# Maver-1 = test: as above
# Excerpt: as §6, §7
# Jeko-1 [4] = test: mantle cell lymphoma 7 day co-treatment model; format: cell-based
# Granta-519 [5] = test: mantle cell lymphoma 7 day pretreatment + 4-day co-treatment model (Cell Titer Glo); conditions: second agent + tazemetostat; 7 day pretreatment + 4-day co-treatment; Granta-519
# Excerpt: as §6, §7
# Granta-519 [6] = test: mantle cell lymphoma 7 day co-treatment model; format: cell-based
# [7] = second agent + tazemetostat, 7 day pretreatment + 4-day co-treatment, Jeko-1
# [8] = second agent + tazemetostat, 7 day pretreatment + 4-day co-treatment, Maver-1
# [9] = second agent + tazemetostat, 7 day co-treatment
structure (smiles),measurement,setting,value
"Cn1c(CCCC(=O)O)nc2cc(N(CCCl)CCCl)ccc21 [Bendamustine, bendamustine]",IC50,MM1.S [1],> 10000 nM
same,IC50,LP-1,> 10000 nM
same,IC50,KMS-28-BM,> 10000 nM
same,IC50,L-363,> 10000 nM
same,IC50,U266,> 10000 nM
Cc1nc2cccc(N)c2c(=O)n1C1CCC(=O)NC1=O (stereo not shown) [CC-122],Loewe volume,MM1.S [2],1.93
same,Loewe volume,RPMI-8226,2.29
"CC(C)C[C@H](NC(=O)[C@H](CCc1ccccc1)NC(=O)CN1CCOCC1)C(=O)N[C@@H](Cc1ccccc1)C(=O)N[C@@H](CC(C)C)C(=O)[C@@]1(C)CO1 [Carfilzomib, carfilzomib]",IC50,MM1.S [1],1.07 nM
same,IC50,LP-1,3.5 nM
same,combinatorial effect by Loewe volumes,LP-1,S (Synergy)
same,IC50,KMS-28-BM,2 nM
same,combinatorial effect by Loewe volumes,KMS-28-BM,S (Synergy)
same,IC50,L-363,2 nM
same,combinatorial effect by Loewe volumes,L-363,A (Additive)
same,combinatorial effect by Loewe volumes,MOLP-8,A (Additive)
same,IC50,U266,3 nM
same,combinatorial effect by Loewe volumes,U266,S (Synergy)
"O=P1(N(CCCl)CCCl)NCCCO1 (stereo not shown) [Cyclophosphomide, cyclophosphamide]",IC50,MM1.S [1],1180 nM
same,IC50,LP-1,6000 nM
same,IC50,KMS-28-BM,1480 nM
same,IC50,L-363,> 10000 nM
same,IC50,U266,> 10000 nM
"COc1cccc2c1C(=O)c1c(O)c3c(c(O)c1C2=O)C[C@@](O)(C(=O)CO)C[C@@H]3O[C@H]1C[C@H](N)[C@H](O)[C@H](C)O1 [Doxorubicin, doxorubicin]",IC50,MM1.S [1],8 nM
same,IC50,LP-1,203 nM
same,combinatorial effect by Loewe volumes,LP-1,S (Synergy)
same,IC50,KMS-28-BM,87 nM
same,combinatorial effect by Loewe volumes,KMS-28-BM,A (Additive)
same,IC50,L-363,10 nM
same,combinatorial effect by Loewe volumes,L-363,A (Additive)
same,combinatorial effect by Loewe volumes,MOLP-8,A (Additive)
same,IC50,U266,50 nM
same,combinatorial effect by Loewe volumes,U266,A (Additive)
"COc1cc([C@@H]2c3cc4c(cc3[C@@H](O[C@@H]3O[C@@H]5CO[C@@H](C)O[C@H]5[C@H](O)[C@H]3O)[C@H]3COC(=O)[C@H]23)OCO4)cc(OC)c1O [Etoposide, etoposide]",IC50,MM1.S [1],122 nM
same,IC50,LP-1,3000 nM
same,IC50,KMS-28-BM,478 nM
same,IC50,L-363,140 nM
same,IC50,U266,787 nM
"CO[C@H]1C[C@@H]2CC[C@@H](C)[C@@](O)(O2)C(=O)C(=O)N2CCCC[C@H]2C(=O)O[C@H]([C@H](C)C[C@@H]2CC[C@@H](OCCO)[C@H](OC)C2)CC(=O)[C@H](C)/C=C(\C)[C@@H](O)[C@@H](OC)C(=O)[C@H](C)C[C@H](C)/C=C/C=C/C=C/1C [Everolimus, everolimus]",IC50,"Jeko-1 [3]; Homo sapiens, JeKo-1, 96 h, read-out: Second agent IC50",0.7 nM
same,Bliss Volume,Jeko-1 [3]; [7],1.42
same,HSA Volume,Jeko-1 [3]; [7],4.62
same,Loewe Volume,Jeko-1 [3]; [7],3.95
same,Synergy Score,Jeko-1 [3]; [7],4.03
same,Loewe volume,Maver-1; [8],6.5
same,Best CI,Jeko-1 [4]; [9],1.0
same,Bliss Volume,Jeko-1 [4]; [9],−0.060
same,HSA Volume,Jeko-1 [4]; [9],0.084
same,Loewe Volume,Jeko-1 [4]; [9],0.56
same,Synergy Score,Jeko-1 [4]; [9],0.4
same,IC50,"Jeko-1 [4]; second agent alone, 7 day co-treatment model",0.5 nM
same,Loewe volume,Granta-519 [5],5.1
"C=CC(=O)N1CCC[C@@H](n2nc(-c3ccc(Oc4ccccc4)cc3)c3c(N)ncnc32)C1 [Ibrutinib, ibrutinib]",IC50,"Maver-1; Homo sapiens, Maver1, read-out: Second agent IC50",> 3300 nM
same,Best CI,Maver-1; [8],0.08
same,Bliss Volume,Maver-1; [8],0.804
same,HSA Volume,Maver-1; [8],3.90
same,Loewe Volume,Maver-1; [8],3.76
same,Loewe volume,Maver-1; [8],3.8
same,Synergy Score,Maver-1; [8],2.33
same,IC50,"Granta-519 [6]; Homo sapiens, 168 h, second agent alone, 7 day co-treatment model",856 nM
same,Best CI,Granta-519 [6]; [9],0.38
same,Bliss Volume,Granta-519 [6]; [9],0.894
same,HSA Volume,Granta-519 [6]; [9],3.86
same,Loewe Volume,Granta-519 [6]; [9],4.16
same,Synergy Score,Granta-519 [6]; [9],2.26
same,Loewe volume,Granta-519 [5],5.8
